The subject of data set [1] is Phosphatidylserine (C2) Binding Site. The data set can be described thus: 3H-DCPLA-ME binding to rat brain slices with C1 and C2 competitors (film-autoradiography). To be noted: rat brain slices. The method, then:
To determine the binding site of DCPLA-ME, ^3H-DCPLA-ME was incubated with rat brain slices in the absence and presence of known C1 and C2 competitors. More specifically, rat brain sections were fixed with formaldehyde, sliced, and incubated with (1)^3H-DCPLA-ME alone; (2)^3H-DCPLA-ME with DCPLA; (3)^3H-DCPLA-ME with Phorbol ester; or (4)^3H-DCPLA-ME and Bryostatin 1. After incubation, the slices were washed with a buffer made of 130 mM NaCl, 5 mM MgCl, 5 mM KCl, 1 mM EGTA, and 0.1% bovine serum albumin in 10 mM HEPES-NaOH, pH 7.4, dried, and analyzed with film-autoradiography.

The target of the next data set is T1, PKC-ε (Homo sapiens, UniProt Q02156).
T1 sequence (Q02156 1-737): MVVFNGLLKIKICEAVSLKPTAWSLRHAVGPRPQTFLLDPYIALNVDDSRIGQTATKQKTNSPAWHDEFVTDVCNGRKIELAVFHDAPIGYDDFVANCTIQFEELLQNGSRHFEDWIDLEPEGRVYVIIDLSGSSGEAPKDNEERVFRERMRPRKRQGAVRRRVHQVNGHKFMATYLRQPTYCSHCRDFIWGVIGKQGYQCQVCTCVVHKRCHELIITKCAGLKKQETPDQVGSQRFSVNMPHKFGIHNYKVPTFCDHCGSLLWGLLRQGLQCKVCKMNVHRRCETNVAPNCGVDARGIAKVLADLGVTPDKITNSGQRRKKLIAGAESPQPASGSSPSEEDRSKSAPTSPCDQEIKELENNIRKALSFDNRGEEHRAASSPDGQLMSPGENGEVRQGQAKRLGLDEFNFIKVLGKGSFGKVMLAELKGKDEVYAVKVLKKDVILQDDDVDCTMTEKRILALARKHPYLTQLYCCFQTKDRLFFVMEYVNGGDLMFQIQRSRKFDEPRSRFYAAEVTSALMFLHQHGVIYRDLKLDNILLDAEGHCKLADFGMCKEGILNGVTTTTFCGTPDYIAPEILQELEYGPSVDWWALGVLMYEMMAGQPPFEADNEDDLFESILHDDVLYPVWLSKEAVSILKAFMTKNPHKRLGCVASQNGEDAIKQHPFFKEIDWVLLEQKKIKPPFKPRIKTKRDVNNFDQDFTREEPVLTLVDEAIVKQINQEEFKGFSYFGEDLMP
The data set can be described thus: PKC activation assay with purified PKC-ε isozyme (32P-phosphoprotein formation). Type of data set: biochemical. To be noted: for Emax: % of control of PKCε at maximum; for Specificity ε/α: Activation of PKC-ε ÷ activation or inhibition of PKCα at 3xEC50; for EC50: lowest concentration that activates by 50% of maximum activation. The method, then: For measurement of PKC activation by DCPLA-ME, activation of recombinant PKC-α, PKC-ε, and PKC-δ was evaluated. DCPLA-ME induced activation was measured in the absence of diacylglycerol (DAG) and phosphatidylserine (PS) as described earlier. See Nelson, T. J. et al., J. Biol. Chem., 2009, 284: 34514-34521, and Kanno, T. et al., J. Cell Physiol., 2009, 221: 183-188. Individual enzymes were incubated for 15 min at 37° C. in the presence of 10 μM histones, 4.89 mM CaCl2, 10 mM MgCl2, 20 mM HEPES (pH 7.4), 0.8 mM EDTA, 4 mM EGTA, 4% glycerol, 8 μg/ml aprotinin, 8 μg/ml leupeptin, 2 mM benzamidine, and 0.5 μCi of [γ-^32P]ATP. Purified PKC-α, PKC-ε and PKC-δ were preincubated with DCPLA-ME for 5 min at room temperature. [^32P]-Phosphoprotein formation was measured by adsorption onto phosphocellulose.
To measure PKC, 10 μl of cell homogenate or purified PKC isozyme was incubated for 15 min at 37° C. in the presence of 10 μM histones, 4.89 mM CaCl2, 1.2 μg/μl phosphatidyl-L-serine, 0.18 μg/μl 1,2-dioctanoyl-sn-glycerol, 10 mM MgCl2, 20 mM HEPES (pH 7.4), 0.8 mM EDTA, 4 mM EGTA, 4% glycerol, 8 μg/ml aprotinin, 8 μg/ml leupeptin, and 2 mM benzamidine. [γ32P]ATP (0.5 μCi) was added and 32P-phosphoprotein formation was measured by adsorption onto phosphocellulose as described previously. See Nelson et al., J. Neurochemistry, 1995, 65: 2350-2357.
PKC activity of each compound was measured in the absence of diacylglycerol and phosphatidyl-L-serine and PKC-δ and PKC-ε were measured in the absence of added EGTA and CaCl2, as described by Kanno et al., J. Lipid Res., 2006, 47: 1146-1156. Low concentrations of Ca^2+ are needed because high Ca^2+ interacts with the PKC phosphatidylserine binding site and prevents activation. […] To determine their PKC isozyme specificity, the compounds were pre-incubated with purified isoforms of PKC for five minutes and the PKC activity was measured radiometrically.
The activation and PKC isozyme specificity of DCPLA-ethyl ester was measured following the procedures in Example 1(B) and (C), except that 9 ng of the purified isozyme was used and it was pre-incubated for 5 minutes at room temperature (FIG. 3). PKC-ε activation by DCPLA-tert-butyl ester and DCPLA-retinyl ester was measured in the same manner as DCPLA-ethyl ester (FIG. 3).
The EC50 values, PKC specificity, and activation for a select number of DCPLA esters was determined (see Table 1). EC50 values were determined by measuring the lowest concentration that activates by 50% of maximum activation. […] The specificity and activation of PKC by the various esters of DCPLA were determined from the measurements of activation of PKC isozymes.

Data set [2] concerns rat primary hippocampal neurons. The data set is described as follows: Neurotoxic effect of Aβ1-42 oligomers, MTT viability assay. The data set is classed as cell-based. The settings on record: 20 hr. The method, then: Amylospheroids (ASPDs) and Aβ monomers were prepared following Hoshi, M., et al. (2003) Proc Natl Acad Sci USA 100, 6370-6375, and Noguchi, A., et al. (2009) J Biol Chem 284, 32895-32905. Briefly, Aβ1-42 was dissolved in 1,1,1,3,3,3-hexafluoro-2-propanol and incubated overnight at 4° C. and then 3 hr at 37° C. The dissolved Aβ1-42 was then lyophilized in 1.5 ml polypropylene centrifuge tubes at 40 nmol/tube concentration. For preparing the ASPDs, the lyophilized Aβ was dissolved in phosphate buffered saline (PBS) without Ca^2+ or Mg^2+ at less than 50 μM concentration and rotated for 14 hr at 4° C. After incubation, the Aβ solution was purified using a 100 kDa molecular mass cutoff filter (Amicon Ultra, Millipore) and the high-molecular weight fraction was saved to obtain the most toxic ASPDs. Aβ derived diffusible ligands (ADDLs) were produced as previously described. See Lambert, M. P et al., Proc. Natl. Acad. Sci. USA, 1998, 95: 6448-6453. Briefly, Aβ1-42 was solubilized at 5 mM in dimethyl sulfoxide, diluted to 100 μM in F12k medium and was incubated at 4° C. for 24 hr. The solution was centrifuged at 14000×g for 10 min at 4° C. and the supernatant was used as the ADDLs.
Viability of cells was measured by MTT assay. MTT (i.e., 3-(4,5-dimethylthiazol-2-yl)-2,5-diphenyltetrazolium bromide) is a tetrazolium salt that is cleaved to formazan by the succinate dehydrogenase, which is only active in viable cells. After solubilization of the formazan, the amount of dye can be quantified with a microplate reader at 570 nm along with a reference of 630 nm. For the MTT assay, 5×10^4 primary rat hippocampal neurons from 18-day-old embryonic Sprague-Dawley rat brains or SH-SY5Y cells were plated on each well of 24-well plates coated with poly-D-lysine. After treatment, the cells were washed with 1× PBS and were incubated with 200 μl of 1 mg/ml MTT solution (Sigma, USA) at 37° C. for 2 hr. Then the MTT-solution was removed and the cells were lysed with 200 μl isopropanol containing 0.04 M HCl and […] for 10 min. Finally, the reading was taken at 570 nm and 630 nm. All the samples were done in triplicate and the data were represented as the percentage of control.
To assess the neurotoxic effect of different sized oligomers, rat primary hippocampal neurons were treated with variable concentrations of these Aβ1-42 species for 20 hr. Viability of the treated cells was compared to untreated cells using the MTT assay described above.
On the technique in general: Formazan colour is commonly taken as a measure of viable cells.

Data on seven molecules can be found in US9163032B2, “Esters of DCPLA and methods of treatment using the same” (Blanchette Rockefeller Neurosciences Institute, priority 2011, dated 2015).

Usually Emax stands for the maximal effect, on the per cent scale that the assay sets. By EC50 is commonly meant the concentration giving half of the maximal effect. Read a low EC50 as greater potency.

Consider `CCCCCC1CC1CC1CC1CCCCCCCC(=O)O` (stereo not shown) [DCPLA, 8-[2-(2-pentylcyclopropylmethyl)-cyclopropyl]-octanoic acid], for which, in data set [1], the “3H-DCPLA-ME binding, 30 nM competitor” value is 86% and the “3H-DCPLA-ME binding, 1 μM competitor” value stood at 35%. At PKC-ε, the Emax is 300%, the “Specificity ε/α” value was 7.4 and the EC50 came out at 1000 nM.

`CCCCCCCCC1CC1CCCCCCCCOC(=O)CCCCCCCC1CC1CC1CC1CCCCC` (stereo not shown) [DCPLA-cyclopropanated oleyl ester]: on PKC-ε, the Emax was found to be 140%, the “Specificity ε/α” value stood at 8.1 and the response was half-maximal at 3 nM (EC50). Also, the “concentration of maximal activation” value on PKC-ε (FIG. 2, FIG. 4) worked out at 10 nM. For the same molecule, the “PKC isozyme specificity” value on PKC-ε (PKC-ε vs PKC-α and PKC-δ) was “relatively specific for PKC-ε”. Besides, the “PKC-ε activation at its peak” value on PKC-ε (maximum, FIG. 1, 2, 4) is listed as 140 % of control.

Turning to `CCCCCC1CC1CC1CC1CCCCCCCC(=O)OCC` (stereo not shown) [DCPLA-ethyl ester], at PKC-ε, the Emax turned out to be 126%, the “Specificity ε/α” value turned out to be 4.2 and a half-maximal effect (EC50) was put at 3 nM.

As for `CCCCCC1CC1CC1CC1CCCCCCCC(=O)OC/C=C(C)/C=C/C=C(C)/C=C/C1=C(C)CCCC1(C)C` (stereo not shown) [DCPLA-retinyl ester], on PKC-ε, the Emax was 129% and the EC50 was determined as 10 nM.

Take `CCCCCC1CC1CC1CC1CCCCCCCC(=O)OC(C)(C)C` (stereo not shown) [DCPLA-t-butyl ester, DCPLA-tert-butyl ester]: on PKC-ε, the “form of activity vs. concentration response” value was “bimodal activation”; the Emax was determined as 130%; the midpoint of the response, the EC50, lay at 1 nM.

`CCCC(=O)O[C@@H]1[C@@H](C)[C@@]2(O)[C@@H](C=C(CO)C[C@]3(O)C(=O)C(C)=C[C@@H]23)[C@@H]2C(C)(C)[C@]12OC(=O)CCC` [Phorbol ester (PdBu)]: in data set [1], the “3H-DCPLA-ME binding, 30 nM competitor” value came to 100% and the “3H-DCPLA-ME binding, 1 μM competitor” value is listed as 81%.

Turning to “oAβ < 100 kDa: filtrate from the 100 kDa filtration of ASPD preparation, 12 monomers on average”, the “Viability of primary neuron” value in data set [2] (50 nM) is 76.41 ± 5.54 % of control; in data set [2] (50 nM, listed as OAβ<100 kDa filtrate) it was “significantly cytotoxic”; in data set [2] (500 nM), 62.94 ± 9.53 % of control; in data set [2] (1000 nM (1 μM)), 53.52 ± 2.43 % of control.
